This note sets out measurements from patent publication US7129246B2, “N-adamantlmethyl derivatives and intermediates as pharmaceutical compositions and processes for their preparation” (AstraZeneca AB, priority 2001, dated 2006).

The structures appear in SMILES notation. Where a name gives a salt, the structure may show the parent alone.

One data set concerns the target T1, P2X7 receptor (Homo sapiens, UniProt Q99572).
T1 construct: 200 μl of a suspension of THP-1 cells; endogenous in cells; host or cells: THP-1 cells
T1 sequence (Q99572 1-595): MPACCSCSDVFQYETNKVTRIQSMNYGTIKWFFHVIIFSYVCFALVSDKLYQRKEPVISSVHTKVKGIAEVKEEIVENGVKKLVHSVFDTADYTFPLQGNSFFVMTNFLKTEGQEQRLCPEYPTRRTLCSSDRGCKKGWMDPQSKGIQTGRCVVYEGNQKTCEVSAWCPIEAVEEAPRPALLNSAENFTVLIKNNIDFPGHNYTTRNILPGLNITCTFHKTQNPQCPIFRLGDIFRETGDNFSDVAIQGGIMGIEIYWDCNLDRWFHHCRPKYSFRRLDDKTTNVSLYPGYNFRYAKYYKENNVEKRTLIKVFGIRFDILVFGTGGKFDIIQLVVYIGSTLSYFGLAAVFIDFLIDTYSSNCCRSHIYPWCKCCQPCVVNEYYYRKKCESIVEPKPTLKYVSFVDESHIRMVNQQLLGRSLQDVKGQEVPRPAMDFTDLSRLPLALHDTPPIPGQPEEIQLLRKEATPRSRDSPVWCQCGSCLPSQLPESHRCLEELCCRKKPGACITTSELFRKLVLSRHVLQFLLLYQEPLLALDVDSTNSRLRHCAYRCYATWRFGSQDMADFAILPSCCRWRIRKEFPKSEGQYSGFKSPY
The experiment in a line: P2X7 receptor antagonist test: bbATP-induced ethidium bromide fluorescence in THP-1 cells. As to conditions: bbATP agonist, 37° C. for one hour, read-out: pIC50 (negative logarithm of the concentration of test compound necessary to reduce the bbATP agonist activity by 50%) (converted). The format is cell-based. An excerpt:
Certain compounds such as benzoylbenzoyl adenosine triphosphate (bbATP) are known to be agonists of the P2X7 receptor, effecting the formation of pores in the plasma membrane (Drug Development Research (1996), 37(3) p. 126). Consequently, when the receptor is activated using bbATP in the presence of ethidium bromide (a fluorescent DNA probe), an increase in the fluorescence of intracellular DNA-bound ethidium bromide is observed. The increase in fluorescence can be used as a measure of P2X7 receptor activation and therefore to quantify the effect of a compound on the P2X7 receptor.
In this manner, each of the title compounds of the Examples was tested for antagonist activity at the P2X7 receptor. Thus, the test was performed in 96-well flat bottomed microtitre plates, the wells being filled with 250 μl of test solution comprising 200 μl of a suspension of THP-1 cells (2.5×10^6 cells/ml) containing 10^−4M ethidium bromide, 25 μl of a high potassium buffer solution containing 10^−5M bbATP, and 25 μl of the high potassium buffer solution containing 3×10^−5M test compound. The plate was covered with a plastics sheet and incubated at 37° C. for one hour. The plate was then read in a Perkin-Elmer fluorescent plate reader, excitation 520 nm, emission 595 nm, slit widths: Ex 15 nm, Em 20 nm. […]
Take `O=C(NCC12CC3CC(CC(C3)C1)C2)c1cc(OCCNCCCO)ncc1Cl` [Example 12, N-(1-Adamantylmethyl)-5-chloro-2-{2-[(3-hydroxypropyl)amino]ethoxy}isonicotinamide, hydrochloride]: the IC50 was 0.0794 µM.

`CN(CCO)CCCc1cc(C(=O)NCC23CC4CC(CC(C4)C2)C3)c(Cl)cn1` [Example 26, N-(1-Adamantylmethyl)-5chloro-2-{3-[(2-hydroxyethyl)(methyl)amino]propyl}isonicotinamide dihydrochloride]: the IC50 was 0.0158 µM.

Tested on in another data set: not given
Test: not given
Settings: not given
For orientation: melting point means the temperature of the solid-liquid transition. For `NCCCc1cc(C(=O)NCC23CC4CC(CC(C4)C2)C3)c(Cl)cn1` (as salt: hydrochloride) [Example 6, N-(1-Adamantylmethyl)-2-(3-aminopropyl)-5-chloroisonicotinamide hydrochloride], the melting point was 150 °C (dec.).

As for `CCNCCCc1cc(C(=O)NCC23CC4CC(CC(C4)C2)C3)c(Cl)cn1` (as salt: hydrochloride) [Example 7, N-(1-Adamantylmethyl)-5-chloro-2-[3-(ethylamino)propyl]isonicotinamide hydrochloride], the melting point is 206 to 208 °C (dec.).

In turn, `C[C@H](CO)NCCCc1cc(C(=O)NCC23CC4CC(CC(C4)C2)C3)c(Cl)cn1` (as salt: hydrochloride) [Example 9, N-(1-Adamantylmethyl)-5-chloro-2-(3-{[(1R)-2-hydroxy-1-methylethyl]amino}propyl)isonicotinamide, dihydrochloride] registered a melting point of 205 to 208 °C.

Consider `C[C@@H](CO)NCCCc1cc(C(=O)NCC23CC4CC(CC(C4)C2)C3)c(Cl)cn1` (as salt: hydrochloride) [Example 10, N-(1-Adamantylmethyl)-5-chloro-2-(3-{[(1S)-2-hydroxy-1-methylethyl]amino}propyl)isonicotinamide, dihydrochloride], for which the melting point fell in the range of 205 to 208 °C.

`O=C(NCC12CC3CC(CC(C3)C1)C2)c1cc(CCCNCCO)ncc1Cl` (as salt: hydrochloride) [Example 11, N-(1-Adamantylmethyl)5-chloro-2-{3-[(2-hydroxyethyl)amino]propyl}-isonicotinamide hydrochloride]: the melting point was 204 to 205 °C (dec.).

As to `O=C(NCC12CC3CC(CC(C3)C1)C2)c1cc(CCCNC[C@@H](O)CO)ncc1Cl` (as salt: hydrochloride) [Example 16, N-(1-Adamantylmethyl)-5-chloro-2-(3-{[(2R)-2,3-dihydroxypropyl]amino}propyl)isonicotinamide, dihydrochloride], the melting point was in the range of 217 to 219 °C.

Compound `CC(C)(O)CNCCCc1cc(C(=O)NCC23CC4CC(CC(C4)C2)C3)c(Cl)cn1` (as salt: hydrochloride) [Example 19, N-(1-Adamantylmethyl)-5-chloro-2-{3-[(2-hydroxy-2-methylpropyl)amino]propyl}isonicotinamide dihydrochloride] gave a melting point of 236 to 238 °C.

In the case of `CNCCNCCCc1cc(C(=O)NCC23CC4CC(CC(C4)C2)C3)c(Cl)cn1` (as salt: hydrochloride) [Example 21, N-(1-Adamantylmethyl)-5-chloro-2-(3-{[2-(methylamino)ethyl]amino}propyl)isonicotinamide dihydrochloride], the melting point lay within 216 to 219 °C.

On to `O=C(NCC12CC3CC(CC(C3)C1)C2)c1cc(CCCNCCNCCO)ncc1Cl` (as salt: hydrochloride) [Example 23, N-(1-Adamantylmethyl)-5-chloro-2-[3-({2-[(2-hydroxyethyl)amino]ethyl}amino)propyl]isonicotinamide dihydrochloride], for which the melting point was in the range of 231 to 233 °C.

The compound `O=C(NCC12CC3CC(CC(C3)C1)C2)c1cc(CCCNC(CO)CO)ncc1Cl` (as salt: hydrochloride) [Example 25, N-(1-Adamantylmethyl)-5-chloro-2-(3-{[2-hydroxy-1-(hydroxymethyl)ethyl]amino}propyl)isonicotinamide dihydrochloride] showed a melting point of 201 to 203 °C.

Turning to `CN(CCO)CCCc1cc(C(=O)NCC23CC4CC(CC(C4)C2)C3)c(Cl)cn1` (as salt: hydrochloride) [Example 26, N-(1-Adamantylmethyl)-5chloro-2-{3-[(2-hydroxyethyl)(methyl)amino]propyl}isonicotinamide dihydrochloride], the melting point lay in the range of 206 to 208 °C.

For `C[C@@H](O)CNCCCc1cc(C(=O)NCC23CC4CC(CC(C4)C2)C3)c(Cl)cn1` (as salt: hydrochloride) [Example 28, N-(1-Adamantylmethyl)-5-chloro-2-(3-{[(2R)-2-hydroxypropyl]amino}propyl)isonicotinamide, dihydrochloride], the melting point lay within 224 to 226 °C.

`CNCCCNCc1cc(C(=O)NCC23CC4CC(CC(C4)C2)C3)c(Cl)cn1` (as salt: hydrochloride) [Example 29, N-(1-Adamantylmethyl)-5chloro-2-({[3-(methylamino)propyl]amino}methyl)isonicotinamide dihydrochloride]: the melting point is 285 to 287 °C.

In turn, `O=C(NCC12CC3CC(CC(C3)C1)C2)c1cc(CNCCNCCO)ncc1Cl` (as salt: hydrochloride) [Example 30, N-(1-Adamantylmethyl)-5-chloro-2-[({2-[(2-hydroxyethyl)amino]ethyl}amino)methyl]isonicotinamide dihydrochloride] registered a melting point of 289 to 292 °C.

`CNCCNCc1cc(C(=O)NCC23CC4CC(CC(C4)C2)C3)c(Cl)cn1` (as salt: hydrochloride) [Example 31, N-(1-Adamantylmethyl)-5-chloro-2-({[2-(methylamino)ethyl]amino}methyl)isonicotinamide dihydrochloride] came in with a melting point of 259 to 262 °C.

In the case of `O=C(NCC12CC3CC(CC(C3)C1)C2)c1cc(CCNCCO)ncc1Cl` (as salt: hydrochloride) [Example 32, N-(1-Adamantylmethyl)-5-chloro-2-{3-[(2-hydroxyethyl)amino]ethyl}isonicotinamide dihydrochloride], the melting point was in the range of 242 to 244 °C.

With `O=C(NCC12CC3CC(CC(C3)C1)C2)c1cc(CCNCCCO)ncc1Cl` (as salt: hydrochloride) [Example 33, N-(1-Adamantylmethyl)-5-chloro-2-{3-[(3-hydroxypropyl)amino]ethyl}isonicotinamide dihydrochloride], the melting point was 240 to 242 °C.

As to `CNCCCc1cc(C(=O)NCC23CC4CC(CC(C4)C2)C3)c(Cl)cn1` (as salt: hydrochloride) [Example 34, N-(1-Adamantylmethyl)-5-chloro2-[3-(methylamino)propyl]isonicotinamide hydrochloride], the melting point lay within 210 to 212 °C.

Turning to `CNCCCNCCCc1cc(C(=O)NCC23CC4CC(CC(C4)C2)C3)c(Cl)cn1` (as salt: trifluoroacetate) [Example 22, N-(1-Adamantylmethyl)-5-chloro-2-(3-{[3-(methylamino)propyl]amino}propyl)isonicotinamide bis(trifluoroacetate)], the melting point was in the range of 210 to 212 °C.

`O=C(NCC12CC3CC(CC(C3)C1)C2)c1cc(CCCNCCCO)ncc1Cl` [Example 1, N-(1-Adamantylmethyl)-5-chloro-2-{3-[(3-hydroxypropyl)-amino]propyl}isonicotinamide] showed a melting point of 84 to 85 °C.

Take `O=C(NCC12CC3CC(CC(C3)C1)C2)c1cc(CCCNCCCO)cnc1Cl` [Example 3, N-(1-Adamantylmethyl)-2-chloro-5-{3-[(3-hydroxypropyl)amino]propyl}nicotinamide]: the melting point lay in the range of 105 to 107 °C.
